# From patent publication US11730717B1, “Melanin-inspired antimicrobial” (The Board of Regents for the Oklahoma Agricultural and …, priority 2020, dated 2023)
# Where “and” joins values, the source holds several entries; their conditions need not be identical. Equal entries are not always repeated. Entries after “also recorded” stand apart in the source; their conditions may differ. Where two headings read alike, the source gives them in different places.
# How the values were obtained:
# [1] = tested on: Cryptococcus neoformans serotype A strain H99; test: Antifungal MIC assay; type: cell-based
# Protocol: Cryptococcus neoformans serotype A strain H99 as well as Candida ablicans strain SC5314, were readily available in the lab. The stock of cells is stored at −80° C. to preserve the fungi and prevent contamination. The cells were grown and maintained in yeast extract-peptone-dextrose (YPD) media (Difco). Cryptococcus or Candida cells were incubated in YPD broth for 18 hrs at 30° C., in a shaking incubator. After the incubation period, they were washed three times in sterile phosphate-buffered saline (PBS) to remove all remaining residue of YPD. The cells were then quantified by using trypan blue dye exclusion in a hemocytometer.
# C. neoformans were suspended in RPMI with MOPS, 0.165M, at a concentration of 0.5×10^3 cells/mL. RPMI MOPS media was added to a 96-well plate in a volume of 100 μL to every well, with the exception of column 1. An additional 80 μL of RPMI MOPS was added to column 4 for a total of 180 μL/per well. Amphotericin B or EIPE-1 was added to columns […] with a volume of 20 μL at a concentration of 1 mg/mL. Contents were mixed, then serially diluted 100 μL down the plate until column 11. The last 100 μL was discarded, leaving column 12 blank. C. neoformans was added at a volume of 100 μL per well from column 4 to column 12, so the final volume of the wells was 200 μL. Plates were incubated at 35° C. in a humid incubator for 48 hrs.
# HeLa cells = test: Cytotoxicity, LDH leakage assay; type: cell-based
# Protocol: HeLa cells were cultured in 96-well plates at 37° C. and 5% CO2 in Roswell Park Memorial Institute (RMPI) 1640 medium with 5% Fetal Bovine Serum (FBS). Once HeLa cells reached 95% confluency, the media was replaced with media containing various concentrations of EIPE-1, DBI or DMSO for 24 hours. Cell cytotoxicity was measured using the lactate dehydrogenase (LDH) leakage assay. Results were compared to maximum values of lysed cells in control wells and were graphed as percent relative cytotoxicity using Prism 5.0.
# Host cell cytotoxicity against HeLa cells was examined for both DBI and EIPE-1 (FIG. 2B). LDH release was examined after 24-hour exposure to varying concentrations of DBI, DMSO and EIPE-1. […] Thus, EIPE-1 is relatively safe to use with respect to eukaryotic cells.
# MRSA = test: Scanning electron microscopy of treated bacteria; type: cell-based, Staphylococcus aureus; conditions: 0.01 mg/mL for 30 minutes
# Protocol: MRSA was grown overnight in 10 mL of LB broth, sub-cultured (5 mL of overnight culture added to 20 mL LB) and grown for 3 h. MRSA culture (300 μL) were removed, placed into a 1.5 mL tube, and treated with DMSO or EIPE-1 (0.01 mg/mL) for 30 minutes. Each sample was placed on glass coverslips (treated with poly-L-lysine) in a 24 well plate and fixed with 2% glutaraldehyde (in 0.1 M sodium cacodylate buffer) for 2 h at room temperature. After fixation, samples were washed three times with 0.1 M sodium cacodylate buffer. Samples were then fixed with 1% osmium tetroxide in water for 1 h at room temperature and were then washed three times with 0.1 M sodium cacodylate buffer. The samples were then dehydrated with an ethanol series (once with 50%, 70%, 90%, 95% and thrice with 100% ethanol). Samples were dried using hexamethyldisilazane (HAMIDS) and then were mounted on stubs. Finally, samples were coated with gold and palladium using an automated sputter coater. Micrographs were acquired using Quanta 600 Scanning electron microscope.
# To visualize potential membrane changes, DMSO and EIPE-1 treated MRSA were prepped and visualized by scanning electron microscopy (FIG. 4B). […] FIG. 4(C) contains bar charts that show the percentage of live and dead MRSA from 20 microscopy fields of view.
# S. lactis = test: MIC and MBC values (Table 2); type: cell-based; conditions: repeated determinations
# S. epidermidis SK01 = test: MIC and MBC values (Table 2); type: cell-based; conditions: Staphylococcus epidermidis
# P. moltocida P-1581 = test: MIC and MBC values (Table 2); type: cell-based; conditions: Pasteurella, P1581
# [2] = tested on: Pseudomonas aeruginosa (PA); test: Comparison with Methicillin and Gentamicin, recoverable CFU; type: cell-based; conditions: compared with Methicillin and Gentamicin treatment
# Protocol: To determine CFUs of PA and MRSA after exposure to DMSO, DBI, EIPE-1, Gentamicin or Methicillin, 10-fold serial dilutions were prepared in 96-well micro plates using multichannel pipettes. For each dilution, 25 ptL of each sample was pipetted onto a plate containing agar medium and incubated for 18 h at 37° C. The number of colonies for each dilution were counted and used to back calculate the number of bacteria per mL (CFU/mL) in each original bacterial culture.
# EIPE-1 antimicrobial activity against MRSA and PA was compared to that of Methicillin and Gentamicin treatment. Bacterial cultures were grown, normalized and then exposed to either DBI, DMSO (solvent control), EIPE-1, Methicillin or Gentamicin (FIG. 3). […] This is highly significant and novel as methicillin resistance is a huge problem in hospitals and patient treatment worldwide. […] Gram-negative bacteria like PA have an outer membrane covered with lipopolysaccharides that protects the bacteria from antibiotics, dyes, and detergents from penetrating the bacterial cell.
# S. aureus ATCC 25923 = test: MIC and MBC values (Table 2); type: cell-based, Staphylococcus aureus
smiles,measurement,setting,value
"COC(=O)c1cc2c(C#Cc3ccc(OCCC[N+](C)(C)C)cc3)c(OC)c(OC)c(C#Cc3ccc(OCCC[N+](C)(C)C)cc3)c2n1C [EIPE-1, 3,3′-((((5,6-dimethoxy-2-(methoxycarbonyl)-1-methyl-1H-indole-4,7-diyl)bis(ethyne-2,1-diyl))bis(4,1-phenylene))bis(oxy))bis(N,N,N-trimethylpropan-1-aminium) iodide]",MIC for C. neoformans,[1],3.1 mg/L
same,Minimum inhibitory concentration (MIC) for the isolate of C. neoformans,"[1]; 35° C., 48 hrs, RPMI with MOPS",1.749 ± 0.1080 µg·mL
same,MIC,"[1]; Cryptococcus neoformans, read-out: MIC for C. neoformans",1.75 mg/L
same,"MIC, C. neoformans",[1]; across seven MIC assays,1.67 mg/L
same,concentration at which cell cytotoxicity was detected,HeLa cells,62.5 μg/mL and 66.8 μM
same,maximal cytotoxicity (LDH release),"HeLa cells; 24-hour exposure, concentrations above 62.5 μg/mL (66.8 μM)",50%
same,cytotoxic concentration relative to the MIC against S. aureus,HeLa cells; prolonged exposure (24 h),4-5 fold
same,cell membrane appearance by SEM,MRSA,cell membrane damage; also recorded: damaged cell membranes
same,MBC,S. lactis,2 mg/L
same,MBC (μg/mL),S. lactis,1.000 µg/mL
same,MIC,S. lactis,1 mg/L
same,MIC (μg/mL),S. lactis,0.500 µg/mL
same,MBC,S. epidermidis SK01,2 mg/L
same,MIC,S. epidermidis SK01,1 mg/L
same,MBC,P. moltocida P-1581,64 mg/L
same,MIC,P. moltocida P-1581,64 mg/L
same,activity against PA,[2],does not appear to have activity; also recorded: did not display any activity
same,MBC,"S. aureus ATCC 25923; Staphylococcus aureus, ATCC25923, repeated determinations",2 mg/L
same,MIC,"S. aureus ATCC 25923; Staphylococcus aureus, ATCC25923, repeated determinations, read-out: MIC",2 mg/L
same,MIC,S. aureus ATCC 25923; repeated determinations,1.000 mg/L
